Results from article PMC10525438 (2023).

Legend:
[1] = test system: h18-Ψ (RNA, rRNA, pseudouridine at 516 (E. coli numbering; residue 6 of the 30-nt model)) CUCCGUGCCAGCAGCCGCGGUAAUACGGAG; assay: CD titration at 265 nm; conditions: 15 mM KCl, 4 mM MgCl2; 20 mM potassium cacodylate pH 7.0, 30 °C; 5 µM RNA (Methods print a different CD buffer, pH 7.6)
[2] = test system: h18-U (RNA, rRNA) CUCCGUGCCAGCAGCCGCGGUAAUACGGAG; assay: CD titration at 265 nm; conditions: 15 mM KCl, 4 mM MgCl2; 20 mM potassium cacodylate pH 7.0, 30 °C; 5 µM RNA (Methods print a different CD buffer, pH 7.6)

- Kd [1]: 23 ± 3 µM
- Kd [2]: 63 ± 1 µM
SMILES: CN[C@@H]1[C@H](O[C@H]2[C@H](O[C@H]3[C@H](O)[C@@H](O)[C@H](N=C(N)N)[C@@H](O)[C@@H]3N=C(N)N)O[C@@H](C)[C@]2(O)C=O)O[C@@H](CO)[C@H](O)[C@H]1O
